Our source for the EC50 values is patent US20230108906A1, “SUBSTITUTED BICYCLIC AND TRICYCLIC UREAS AND AMIDES, ANALOGUES THEREOF, AND METHODS USING SAME” (Arbutus Biopharma Corporation, priority 2019, published 2023).

One may read the pEC50 as the EC50 on a negative log10 scale, so that one unit is a factor of ten.

pEC50: −log10 of the molar value.

The first assay has as its system HBV rcDNA in HepDE19 cells. Put plainly: HepDE19 assay with bDNA quantitation of HBV rcDNA. The format is cell-based, hepatitis B virus (HBV). Particulars: Hepatitis B virus, HepDE19, 168 h, inhibition of rcDNA formation in HepDE19 cells (HepG2 derived), Tet-free medium, 7 day incubation, Quantigene 2.0 bDNA readout, top concentration 25 μM; read-out: DE-19bDNA EC50. How it is done: HepDE19 Assay with bDNA Quantitation of HBV rcDNA:
HepDE19 cell culture system is a HepG2 (human hepatocarcinoma) derived cell line that supports HBV DNA replication and cccDNA formation in a tetracycline (Tet)-regulated manner and produces HBV rcDNA and a detectable reporter molecule dependent on the production and maintenance of cccDNA (Guo, et al., 2007, J. Virol. 81:12472-12484).
HepDE19 (50,000 cells/well) were plated in 96-well collagen-coated tissue-culture treated microtiter plates in DMEM/F12 medium supplemented with 10% fetal bovine serum, 1% penicillin-streptomycin and 1 μg/mL tetracycline and incubated in a humidified incubator at 37° C. and 5% CO2 overnight. Next day, the cells were switched to fresh medium without tetracycline and incubated for 4 hours at 37° C. and 5% CO2. The cells were treated with fresh Tet-free medium with compounds at concentrations starting at 25 μM and a serial, […], 8-point, titration series in duplicate. The final DMSO concentration in the assay was 0.5%. The plates were incubated for 7 days in a humidified incubator at 37° C. and 5% CO2. Following a 7 day-incubation, the level of rcDNA present in the inhibitor-treated wells was measured using a Quantigene 2.0 bDNA assay kit (Affymetrix, Santa Clara, Calif.) with HBV specific custom probe set and manufacturers instructions. Concurrently, the effect of compounds on cell viability was assessed using replicate plates, plated at a density of 5,000 cells/well and incubated for 4 days, to determine the ATP content as a measure of cell viability using the cell-titer glo reagent (CTG; Promega Corporation, Madison, Wis.) as per manufacturer's instructions. The plates were read using a Victor luminescence plate reader (PerkinElmer Model 1420 Multilabel counter) and the relative luminescence units (RLU) data generated from each well was calculated as % inhibition of the untreated control wells and analyzed using XL-Fit module in Microsoft Excel to determine EC50 and EC90 (bDNA) and CC50 (CTG) values using a 4-parameter curve fitting algorithm.
Representative compounds of the disclosure were tested for their abilities to inhibit formation of relaxed circular DNA (rcDNA) in a HepDE19 assay, as described elsewhere herein.
Consider `CN(C(=O)Nc1ccc(F)c(Cl)c1)C1COCc2[nH]c(=O)c3ccsc3c21` (centres unmarked) [Compound 96, 3-(3-chloro-4-fluorophenyl)-1-methyl-1-(4-oxo-4,6,8,9-tetrahydro-5H-pyrano[3,4-b]thieno[2,3-d]pyridin-9-yl)urea], for which the pEC50 is 7.10.

`CN(C(=O)N1Cc2ccccc2C1)[C@@H]1COCc2[nH]c(=O)c3cc(F)c(F)cc3c21` [Compound 218, (S)—N-(8,9-Difluoro-6-oxo-1,4,5,6-tetrahydro-2H-pyrano[3,4-c]isoquinolin-1-yl)-N-methylisoindoline-2-carboxamide]: the pEC50 is 5.92. Consider `CC(C)CN(C(=O)Nc1ccc(F)c(Cl)c1)C1CCc2[nH]c(=O)cc(C(F)(F)F)c21` (centres unmarked) [Compound 4, 3-(3-Chloro-4-fluorophenyl)-1-isobutyl-1-(2-oxo-4-(trifluoromethyl)-2,5,6,7-tetrahydro-1H-cyclopenta[b]pyridin-5-yl)urea], for which the pEC50 was 6.04. In the case of `CCN(C(=O)Nc1ccc(F)c(Cl)c1)C1COCc2[nH]c(=O)c3cc(Cl)ccc3c21` (centres unmarked) [Compound 56, 3-(3-Chloro-4-fluorophenyl)-1-(8-chloro-6-oxo-1,4,5,6-tetrahydro-2H-pyrano[3,4-c]isoquinolin-1-yl)-1-ethylurea], the pEC50 was 7.30.

Staying with this assay, now noted: inhibition of rcDNA formation in HepDE19 cells (HepG2 derived), Tet-free medium, 7 day incubation, Quantigene 2.0 bDNA readout, top concentration 25 μM; read-out: DE-19bDNA EC50.
With `CN(C(=O)Nc1ccc(F)c(C(F)F)c1)C1COCc2nc(NCCO)c3cc(F)c(F)cc3c21` (single isomer, unassigned) [Compound 237, 1-(8,9-Difluoro-6-((2-hydroxyethyl)amino)-1,4-dihydro-2H-pyrano[3,4-c]isoquinolin-1-yl)-3-(3-(difluoromethyl)-4-fluorophenyl)-1-methylurea], the pEC50 was 5.58.

Regarding `CN(C(=O)Nc1ccc(F)c(F)c1)C1CCCc2[nH]c(=O)c3c(c21)COCC3` (single isomer, unassigned) [Compound 82, 3-(3,4-Difluorophenyl)-1-methyl-1-(5-oxo-3,4,5,6,7,8,9,10-octahydro-1H-pyrano[4,3-c]quinolin-10-yl)urea], the negative logarithm of the EC50 (pEC50) is 5.14.

With `CN(C(=O)Nc1ccc(F)c(F)c1)C1COCc2[nH]c(=O)c3c(c21)COCC3` (single isomer, unassigned) [Compound 86, 3-(3,4-Difluorophenyl)-1-methyl-1-(5-oxo-1,3,4,5,6,7,9,10-octahydrodipyrano[3,4-b:3′,4′-d]pyridin-10-yl)urea], the pEC50 was not above 4.60. Regarding `CN(C(=O)Nc1ccc(F)c(C(F)F)c1)C1COCc2nc(NCCO)c3cc(F)c(F)cc3c21` (single isomer, unassigned) [Compound 238, 1-(8,9-Difluoro-6-((2-hydroxyethyl)amino)-1,4-dihydro-2H-pyrano[3,4-c]isoquinolin-1-yl)-3-(3-(difluoromethyl)-4-fluorophenyl)-1-methylurea], the negative-log EC50 (pEC50) was 7.70. As to `CN(C(=O)Nc1ccc(F)c(Cl)c1)C1CCCc2[nH]c(=O)c3cc(F)c(F)cc3c21` (centres unmarked) [Compound 39, 3-(3-Chloro-4-fluorophenyl)-1-(8,9-difluoro-6-oxo-1,2,3,4,5,6-hexahydrophenanthridin-1-yl)-1-methylurea], the negative-log EC50 (pEC50) was 8.00.

Turning to `CN(C(=O)Nc1ccc(F)c(Cl)c1)C1C[S+]([O-])Cc2[nH]c(=O)c3cc(F)c(F)cc3c21` (single isomer, unassigned) [Compound 208, 3-(3-Chioro-4-fluorophenyl)-1-(8,9-difluoro-3-oxido-6-oxo-1,4,5,6-tetrahydro-2H-thiopyrano[3,4-c]isoquinolin-1-yl)-1-methylurea], the pEC50 is 5.07. On to `Cc1cc(NC(=O)N(CC(C)C)C2COCc3[nH]c(=O)c4cc(F)ccc4c32)ccc1F` (single isomer, unassigned) [Compound 132, 3-(4-Fluoro-3-methylphenyl)-1-(8-fluoro-6-oxo-1,4,5,6-tetrahydro-2H-pyrano[3,4-c]isoquinolin-1-yl)-1-isobutylurea], for which the negative logarithm of the EC50 (pEC50) is 6.82. Turning to `CN(C(=O)Nc1ccc(F)c(Cl)c1)C1COCc2[nH]c(=O)c3c(c21)CCOC3` (single isomer, unassigned) [Compound 91, 3-(3-Chloro-4-fluorophenyl)-1-methyl-1-(6-oxo-1,2,4,5,6,7,9,10-octahydrodipyrano[3,4-b:4′,3′-d]pyridin-1-yl)urea], the pEC50 was 4.96.

`CC(C)CN(C(=O)Nc1ccc(F)c(C#N)c1)C1COCc2[nH]c(=O)c3cc(F)c(F)cc3c21` (single isomer, unassigned) [Compound 122, 3-(3-Cyano-4-fluorophenyl)-1-(8,9-difluoro-6-oxo-1,4,5,6-tetrahydro-2H-pyrano[3,4-c]isoquinolin-1-yl)-1-isobutylurea]: the negative-log EC50 (pEC50) is 6.92.

`CN(C(=O)Nc1cc(F)c(F)c(Cl)c1)C1COCc2[nH]c(=O)c3cc(F)ccc3c21` (single isomer, unassigned) [Compound 107, 3-(3-Chloro-4,5-difluorophenyl)-1-(8-fluoro-6-oxo-1,4,5,6-tetrahydro-2H-pyrano[3,4-c]isoquinolin-1-yl)-1-methylurea]: the pEC50 was 6.03. With `CN(C(=O)Nc1ccc(F)c(Cl)c1)C1CNCc2[nH]c(=O)c3cc(F)ccc3c21` (single isomer, unassigned) [Compound 153, 3-(3-Chloro-4-fluorophenyl)-1-(8-fluoro-6-oxo-1,2,3,4,5,6-hexahydrobenzo[c][1,7]naphthyridin-1-yl)-1-methylurea], the negative-log EC50 (pEC50) is 6.14. For the compound `CN(C(=O)Nc1ccc(F)c(F)c1)C1CCCc2[nH]c(=O)c3c(c21)CCCC3` (single isomer, unassigned) [Compound 48, 3-(3,4-Difluorophenyl)-1-methyl-1-(6-oxo-1,2,3,4,5,6,7,8,9,10-decahydrophenanthridin-1-yl)urea], the pEC50 is 5.51. Consider `CN(C(=O)Nc1ccc(F)c(C#N)c1)C1C[S+]([O-])Cc2[nH]c(=O)c3cc(F)c(F)cc3c21` (single isomer, unassigned) [Compound 213, 3-(3-Cyano-4-fluorophenyl)-1-(8,9-difluoro-3-oxido-6-oxo-1,4,5,6-tetrahydro-2H-thiopyrano[3,4-c]isoquinolin-1-yl)-1-methylurea], for which the negative logarithm of the EC50 (pEC50) is 6.00.

As to `CCN(C(=O)Nc1ccc(F)c(Cl)c1)C1CCCc2[nH]c(=O)c3c(c21)CCCC3` (single isomer, unassigned) [Compound 53, 3-(3-Chloro-4-fluorophenyl)-1-ethyl-1-(6-oxo-1,2,3,4,5,6,7,8,9,10-decahydrophenanthridin-1-yl)urea], the pEC50 was 5.59. Regarding `CN(C(=O)Nc1ccc(F)c(F)c1)C1CNCc2[nH]c(=O)c3cc(F)c(F)cc3c21` (single isomer, unassigned) [Compound 191, 1-(8,9-Difluoro-6-oxo-1,2,3,4,5,6-hexahydrobenzo[c][1,7]naphthyridin-1-yl)-3-(3,4-difluorophenyl)-1-methylurea], the negative-log EC50 (pEC50) is 5.52.

For `CN(C(=O)Nc1ccc(F)c(C#N)c1)C1CN(CCO)Cc2[nH]c(=O)c3cc(F)ccc3c21` (single isomer, unassigned) [Compound 171, 3-(3-Cyano-4-fluorophenyl)-1-(8-fluoro-3-(2-hydroxyethyl)-6-oxo-1,2,3,4,5,6-hexahydrobenzo[c][1,7]naphthyridin-1-yl)-1-methylurea], the negative-log EC50 (pEC50) is 4.64.
